Laboratory results taken from patent US20140288061A1, “INSECTICIDE COMPOSITIONS AND PROCESS” (priority 2004, published 2014).

Tested on: German cockroaches
Details: for LC50 (%) [95% CI]: 2 μl per insect, evaluated after 24 hours, alone or with 10% solution (ETCH) of Tomadol 23-1
Protocol: Dose-response evaluations were performed on 1-4 week old adults SJC Strain (S.C. Johnson & Son, Racine, Wis.) German cockroaches, Blattella germanica, L. Insects were individually transferred using a 7″ (18 cm) […] forceps to 100×20 mm polystyrene Petri dishes. The inside edge of the dishes was lightly coated with a layer of (1:3) mineral oil+petroleum jelly to minimize insect escape. Approximately 10 cockroaches were transferred to each dish and then anesthetized with a 15-25 second exposure to CO2. Anesthetized cockroaches were positioned with their ventral side up in the bottom of the Petri dish. A 2 μl drop of test solution was applied to the area between the meso- and methathoracic legs using a Rainen L-10 10 μl pipette. Control cockroaches were treated with a 2 μl drop of the solvent, 100% ethyl alcohol.
Structure—activity tests used to calculate LT50 values were scored approximately every 30 minutes for the first two hours following treatment followed by approximate hourly readings to hour 8 with a final reading at 24 hours. Cockroaches were scored as either alive (dorsal side up, active movement when abdomen prodded) or moribund/dead (dorsal side up and no movement when abdomen prodded or ventral side up and insect unable to right itself).

Row | SMILES | LC50 (%) [95% CI] [%] | synergy of insecticidal activity by Tomadol 23-1 (reduced the LC50) (in words)
1 | COP(=O)(NC(C)=O)SC (centres unmarked) [acephate] | 0.0051 | did not synergize
2 | CCOCn1c(-c2ccc(Cl)cc2)c(C#N)c(Br)c1C(F)(F)F [chlorfenapyr] | 0.4062 | 
3 | CN/C(=N\[N+](=O)[O-])NCc1cnc(Cl)s1 [clothianidin] | 0.0020 | 
4 | CC1(C)C(C=C(Cl)Cl)C1C(=O)OC(C#N)c1ccc(F)c(Oc2ccccc2)c1 (centres unmarked) [cyfluthrin] | 0.0050 | 
5 | O=[N+]([O-])NC1=NCCN1Cc1ccc(Cl)nc1 [imidacloprid] | 0.0219 | 
6 | CNC(=O)Oc1ccccc1OC(C)C [propoxur] | 0.0101 | 
7 | CN1COCN(Cc2cnc(Cl)s2)/C1=N\[N+](=O)[O-] [thiamethoxam] | 0.0038 | 
